Laboratory results from US20210244791A1, “APPLICATION OF PEDF-DERIVED SHORT PEPTIDES IN TENDON HEALING” (BRIM Biotechnology, Inc., priority 2018, published 2021).

Assays:
tendon rupture = conditions: rat model; previous study; cited from earlier work
[1] = tested on: cultured tendon stem/progenitor cells (TSPC); conditions: peptide added in culture medium; previous study; cited from earlier work
Primary rabbit TSPC = test: TSPC cell proliferation assay (fluorometric kit); assay type: cell-based; conditions: 10 μM peptide, low serum media, PDSP solvent (DMSO) set as 100%, mean±SE of three experiments
Description: Primary rabbit TSPC were cultured to near-confluence in a 75T cell culture flask and then verified by immunostaining of a TSPC marker, nucleostemin (>98%; green color). Nuclei were stained with Hoechst 33258 (blue color) and visualized by an epifluorescence microscopy. The nucleostemine-positive TSPC were treated with 10 μM 29-mer or its variants for 24 h. The numbers of TSPC after 24-h expansion were detected with a cell proliferation assay kit (BioVision; catalog number: K307). The TSPC treated with PDSP solvent was set as 100%. Results are expressed as mean±SE of three independent experiments.
(§1) Achilles tendons from New Zealand White rabbits (6-8 months old, 3.0-4.0 kg) were used in this study. Achilles tendons were washed two times with sterile phosphate-buffered saline (PBS) containing 50 μg/ml gentamicin. The tendon and tendon sheath were cut into small pieces (1-2 mm^3). Each 100 mg of fragment was then digested in a solution containing 3 mg/ml of type I collagenase and 4 mg/ml of dispase in 1 ml balance salt solution (BSS; Alcone) at 37° C. for 4 hours. The digested tissues were washed three times with PBS and collected by centrifugation (800 g for 10 min). The digested tissues were placed in tissue-culture plates (Falcon Labware; NJ, USA) and resuspended in high-glucose DMEM supplemented with 10% FBS and 50 μg/ml gentamycin, and maintained at 37° C. with 5% CO2. After 5 days, the medium was changed to remove the loosened tissue residues. Subsequently, tendon cells were incubated with 10% FBS medium for 2 days, and then cultured with a basal medium (2% FBS, 1% ITSE, 300 μg/ml L-glutamine, 1% antibiotic-antimicotic solutions) for further 10 days. Culture medium was changed every 3 days. For passage, tendon cells were harvested with 0.25% trypsin/EDTA, cell counting by haemocytometer, approximately 5×10^3 cells were seeded in each well of a 96-well cell culture plate or 2×10^5 cells were seeded in each well of a 6-well cell culture plate for 24 h. These expanded tendon cells were then treated with 10 μM 29-mer or its variants in fresh basal medium for further 24 h and subjected to cell proliferation assay and western blot analysis, respectively.
Cell Proliferation Assay Kit (Fluorometric) was purchased from BioVision (Catalog #: K307) and used to evaluate cell proliferation according to the manufacturer's recommendations. The fluorescence was read at 480 nm for excitation and 538 nm for emission on a SPECTRAmax GEMINI XS fluorescence microplate spectrophotometer (Molecular Devices, Sunnyvale, Calif., USA).
Rabbit TSPC isolation was described above. TSPC in low serum media were treated with 10 μM of one of the 29-mer variants for 24 h. Cell proliferation was examined by a cell proliferation kit based on a kit provided nuclear dye that specifically binds to nucleic acid in the cell and generates green fluorescence.

injured Achilles tendon = test: Rat model of Achilles tendon injury, histology (H&E) and histopathological score; assay type: in vivo; conditions: 1 week postoperative; subcutaneous 150 μl alginate gel with 100 μM peptide
Excerpt: Representative micrographs of the histopathological analysis by H&E staining. H&E-stained sections in higher magnification show uninjured tendon tissue with a relative scarcity of cells among the collagen fibers.
(A) Representative H&E-stained longitudinal sections in higher magnification show the nuclei morphologies in uninjured tendon tissue and injured tendon treated with vehicle/alginate and 29-mer/alginate for 1 week. (B) Histopathological scores. Total scores were determining by fiber structure, fiber arrangement, rounding of the nuclei, resident cell density and inflammation (infiltration of inflammatory cells, neovascularization and fatty deposits). Data are reported as mean±SE. *P<0.0005 versus vehicle/alginate-treated tendon; ^#P<0.05 versus 29-mer/alginate-treated tendon.
To investigate the effects of the 29-mer peptide on tendon healing, a rat model of Achilles tendon injury was established as reported by Orhan et al. (The effect of extracorporeal shock waves on a rat model of injury to tendon Achilles. A histological and biomechanical study. J. Bone Joint Surg. Br. 2004;.86(4):.613-618). Adult 10-week-old male Sprague-Dawley rats (initial body weight=312±11 g) were anesthetized by an intraperitoneal injection of xylazine (10 mg/kg). Then, the left tendo Achilles injury was created by full-thickness insertion of an 18-G needle through tendo Achilles 1 cm proximal to the calcaneum attachment site. This created a horizontal wound that was flanked by intact tendon tissue to prevent the retraction of severed ends. The skin incision was closed after the wound was irrigated with sterile saline. Treatments were applied to area around the tendon lesion by subcutaneous injection with 150 μl of alginate gel mixed with 100 μM 29-mer or DMSO vehicle (six rats per experimental condition).
The tendon and surrounding soft tissue were dissected. Specimens were fixed in a 4% paraformaldehyde (PFA) solution and then were embedded in paraffin blocks. Sections (5 μm in thickness) were longitudinally cut and stained with hematoxylin and eosin (H&E) or used for immunohistochemical examination. 36 sections per tendon were carefully prepared so as to include the most severely degenerated area. Images were captured using a Nikon Eclipse 80i microscope (Nikon Corporation, Tokyo, Japan) equipped with a Leica DC 500 camera (Leica Microsystems, Wetzlar, Germany). Four sections of each sample containing injured tendon tissues were selected and evaluated by two blinded observers to assess the tendon morphology according to a modified semi-quantitative grading score from 0 to 3 proposed by Chen et al. (Tendon derived stem cells promote platelet-rich plasma healing in collagenase-induced rat Achilles tendinopathy. Cell Physiol. Biochem., 2014; 34(6): 2153-68). The scores analyzed the fiber structure (0-3), fiber arrangement (0-3), rounding of the nuclei (0-3), resident cell density (0-3), and inflammation (0-3; infiltration of inflammatory cells, neovascularization and fatty deposits). According to this grading system, a perfectly normal tendon obtained a score of 0, whereas a score of 15 was assigned to maximally abnormal tendons.
To investigate the therapeutic effect of the 29-mer peptide on injured tendon, a rat model of Achilles tendon injury was established by full-thickness insertion of an 18-G needle through the tendon Achilles. We delivered the 29-mer in a 150 μl alginate gel, which releases 90% loaded 29-mer in 5 days as described in a previous protocol (Ho et al., PEDF-derived peptide promotes skeletal muscle regeneration through its mitogenic effect on muscle progenitor cells. Am J Physiol. Cell Physiol. 2015 Aug. 1; 309(3): C159-68).

cyclin D1 = test: Western blot analysis of cyclin D1 expression in TSPC; assay type: cell-based, rabbit; conditions: TSPC treated 24 h; compared with solvent-treated cells; normalized to β-actin
Description: Primary rabbit TSPC were treated with 10NM 29-mer or its variants for 24 h. Representative blots (A) and densitometric analysis with the SD (B) from three independent experiments are shown. Cyclin D1 expression was normalized to ([…]. *P<0.01 vs. solvent-treated cells. ^#P<0.05 vs. 29-mer-treated cells.
as §1
Cell lysis, SDS-PAGE, and antibodies used for immunoblotting were performed as described (Ho et al., 15-deoxy-Delta(12,14)-prostaglandin J2 induces vascular endothelial cell apoptosis through the sequential activation of MAPKS and p53. J Biol. Chem., 2008; 283(44): 30273-30288). The band intensity in immunoblot was evaluated with a Model GS-700 imaging densitometer (Bio-Rad Laboratories, Hercules, Calif.) and analyzed using Labworks 4.0 software.
However, the 29-mer effect on cyclin D1 protein induction was almost abolished by alanine/glycine replacement at residue S93, A96, Q98, 1103, 1104 and R106, respectively (1.3±0.1, 1.5±0.3, 1.3±0.1, 0.9±0.1, 1.3±0.2, and 1.0±0.3). […] The data also imply that the PDSP at positions Ser93, Ala96, Gln98, Ile103, Ile104, and Arg106 are important for sustaining the PDSP effect on induction of TSPC proliferation.

Substance | healing of tendon rupture (tendon rupture) | induction of cultured TSPC proliferation [1] | TSPC proliferation (numbers of TSPC after 24-h expansion) (Primary rabbit TSPC) [%] | histological appearance of treated tendon (H&E staining) (injured Achilles tendon) | induction of the cyclin D1 protein (cyclin D1) [fold]
24-mer: PEDF-derived short peptide, Ser93-Pro (SLGAEQRTESIIHRALYYDLISSP; UniProt P36955 93-116, looked up, fragment) | facilitated healing of tendon rupture | able to induce cultured tendon stem/progenitor cells (TSPC) proliferation |  |  | 
A96G: 29-mer variant with single glycine alteration at alanine-96 (SLGGEQRTESIIHRALYYDLISSPDIHGT; UniProt P36955 93-121, looked up, variant A96G) |  |  | 102±4.0 | loss of fiber organization and accompanied a marked increase in inflammatory matrix, fatty deposits, and vascularity | 1.5±0.3
1104A: 29-mer variant with single alanine replacement at isoleucine-104 (SLGAEQRTESIAHRALYYDLISSPDIHGT; UniProt P36955 93-121, looked up, variant I104A) |  |  | 112±1.7 | loss of fiber organization and accompanied a marked increase in inflammatory matrix, fatty deposits, and vascularity | 1.3±0.2
20-mer: PEDF-derived short peptide, Ser93-Leu112 (SLGAEQRTESIIHRALYYDL; UniProt P36955 93-112, looked up, fragment) | facilitated healing of tendon rupture | able to induce cultured tendon stem/progenitor cells (TSPC) proliferation |  |  | 
Q98A: 29-mer variant with single alanine replacement at glutamine-98 (SLGAEARTESIIHRALYYDLISSPDIHGT; UniProt P36955 93-121, looked up, variant Q98A) |  |  | 106±5.4 | loss of fiber organization and accompanied a marked increase in inflammatory matrix, fatty deposits, and vascularity | 1.3±0.1
P116A: 29-mer variant with single alanine alteration at residue 116 (SLGAEQRTESIIHRALYYDLISSADIHGT; UniProt P36955 93-121, looked up, variant P116A) |  |  | 115±3.7 |  | 
1103A: 29-mer variant with single alanine replacement at isoleucine-103 (SLGAEQRTESAIHRALYYDLISSPDIHGT; UniProt P36955 93-121, looked up, variant I103A) |  |  | 106±5.3 | loss of fiber organization and accompanied a marked increase in inflammatory matrix, fatty deposits, and vascularity | 0.9±0.1
A107G: 29-mer variant with single glycine alteration at residue 107 (SLGAEQRTESIIHRGLYYDLISSPDIHGT; UniProt P36955 93-121, looked up, variant A107G) |  |  | 117±3.8 |  | 
R99A: 29-mer variant with single alanine alteration at residue 99 (SLGAEQATESIIHRALYYDLISSPDIHGT; UniProt P36955 93-121, looked up, variant R99A) |  |  | 116±7.0 |  | 
R106A: 29-mer variant with single alanine replacement at arginine-106 (SLGAEQRTESIIHAALYYDLISSPDIHGT; UniProt P36955 93-121, looked up, variant R106A) |  |  | 106±3.5 | loss of fiber organization and accompanied a marked increase in inflammatory matrix, fatty deposits, and vascularity | 1.0±0.3
